Reference: US4963530A, “Renin inhibitor peptide compounds, a process for the preparation thereof and pharmaceutical composition comprising the same” (Fujisawa Pharmaceutical Company, Ltd., priority 1987, dated 1990)
Where a chain is given by its changes, count along the chain named.

Experiments:
[1] = target: T1, endogenous renin in human plasma (Homo sapiens, UniProt P00797); experiment: Test 1: inhibition of human plasma renin activity (Ang I formation, RIA); assay type: biochemical; conditions: human plasma pool, pH 6.0, 37° C., 90 minutes incubation, Probit method; read-out: IC50 (concentration that inhibited plasma renin activity by 50%)
T1 construct: incubation (37° C.) of the endogenous renin and angiotensinogen in plasma at pH 6.0; from tissue; host or cells: pooled human plasma (EDTA) from male volunteers
T1 sequence (P00797 67-406): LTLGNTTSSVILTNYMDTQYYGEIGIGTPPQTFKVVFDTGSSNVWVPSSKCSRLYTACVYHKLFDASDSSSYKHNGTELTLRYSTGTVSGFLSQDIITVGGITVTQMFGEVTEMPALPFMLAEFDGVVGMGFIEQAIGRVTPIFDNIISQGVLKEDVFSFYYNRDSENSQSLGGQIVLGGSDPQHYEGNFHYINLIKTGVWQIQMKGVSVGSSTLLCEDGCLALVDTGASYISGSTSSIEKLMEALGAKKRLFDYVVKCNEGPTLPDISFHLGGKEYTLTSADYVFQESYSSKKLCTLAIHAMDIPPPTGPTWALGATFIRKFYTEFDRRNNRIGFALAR
Protocol: Human plasma was collected from male volunteers pretreated with no drugs and used as a pool. Disodium salt of ethylenediaminetetraacetic acid (EDTA) was used as the anticoagulant. Plasma renin activity was measured as the rate of angiotensin I (Ang I) formation after incubation (37° C.) of the endogenous renin and angiotensinogen in plasma at pH 6.0. The incubation mixture contained 250 μl of plasma, 5 μl of (phenylmethyl)sulfonyl fluoride, 30 μl of buffer (sodium, potassium-phosphate, pH 6.0), and 15 μl of an appropriate concentration of test compound in 50% ethyl alcohol-water vehicle. The Ang I formed after 90 minutes of incubation was measured by radioimmunoassay (RIA) which was carried out with a commercial kit, RENCTK 100 (manufactured by Commissariat A L'energie Atomique). Samples were incubated in duplicate and each tube was measured in duplicate in the RIA. Percentage inhibition of plasma renin activity was calculated by comparing the amount of Ang I produced with and without a test compound. The concentration of test compound that inhibited plasma renin activity by 50% ) (IC50) was determined by Probit method.

[2] = target: T2, plasma renin activity (PRA) (Macaca fascicularis, UniProt Q6DLS0); experiment: Test 2: inhibition of plasma renin activity (PRA) in sodium-depleted cynomolgus monkeys after oral dosing; assay type: in vivo, cynomolgus monkeys (Macaca fascicularis); conditions: cynomolgus monkey; 32 mg/kg po, sodium-depleted (furosemide) cynomolgus monkeys, plasma collected 0-6 hours after dosing; read-out: Maximum inhibition of PRA
T2 construct: plasmas were obtained for determination of plasma renin activity (PRA); from tissue; host or cells: plasma of sodium-depleted cynomolgus monkeys, collected after oral dosing
T2 sequence (Q6DLS0 67-406): T1 sequence (P00797 67-406) with T2A, I148L, S169A
Protocol: (§1) Male or female cynomolgus monkeys (Macaca fascicularis) weighing about 2.5-3.5 kg were used. Sodium depletion was achieved by administering furosemide, 15 mg/kg subcutaneously one day before and then 10 mg/kg intravenously 30 minutes before the administration of the test compound.
(§2) Test compounds were dissolved in diluted equimolar hydrochloric acid (pH 5-6) and orally administered to conscious and trained monkeys placed in restraining chairs with pneumatic cuff positioned around the arm for oscillometric measurement of mean arterial blood pressure (MAP) (Model BP-203 NPJ, manufactured by Nippon Colin).
Blood samples were collected at 0, 0.5, 1, 2, 4 and 6 hours after dosing from the antecubital vein of the monkey into disodium salt of EDTA coated tubes, centrifuged for 10 min (3000 rpm, 4° C.) and plasmas were obtained for determination of plasma renin activity (PRA). PRA was measured as the rate of Ang I formation with the same principle as illustrated in Test 1. 100 μl of sample plasma was mixed with 100 μl of the solution of angiotensinase inhibitors (3 mM 8-hydroxyquinoline sulfate and 5 mM 2,3-dimercaptopropanol , SB-REN-1, SORIN BIOMEDICA, Italy). Half (100 μl) of the mixture was incubated at 37° C. for one hour and Ang I formed was determined by a commercial RIA kit (DINABOTT). […] Percentage inhibition of PRA was calculated by the following formula: [formula] […]

[3] = Test 2: hypotensive effect (mean arterial blood pressure) in sodium-depleted conscious cynomolgus monkeys, oral; assay type: in vivo, cynomolgus monkeys (Macaca fascicularis); conditions: 32 mg/kg po, sodium-depleted (furosemide) conscious cynomolgus monkeys, MAP measured 0-6 hours
Protocol: as §1, §2
The MAP was measured at 0 (predosing base line), 0.5, 1, 2, 3, 4 and 6 hours after administration of the test compound. The maximum hypotensive effect was calculated as the maximum percentage fall of MAP from the pretreatment value.

| SMILES | IC50 [1] | inhibition at 32 mg/kg [2] | Maximum hypotensive effect (maximum percentage fall of MAP from pretreatment value) [3] |
| --- | --- | --- | --- |
| CC(C)CC[C@H](O)[C@H](CC1CCCCC1)NC(=O)[C@H](Cc1c[nH]cn1)NC(=O)[C@H](Cc1ccccc1)NC(=O)N1CCOCC1 [Test Compound (a), 2(S)-(N-Morpholinocarbonyl-L-phenylalanyl-L-histidyl)amino-1-cyclohexyl-3(S)-hydroxy-6-methylheptane] | 61 nM | – | – |
| CC(C)CC[C@H](O)[C@H](CC1CCCCC1)NC(=O)[C@H](Cc1c[nH]cn1)N(C)C(=O)[C@H](Cc1ccccc1)NC(=O)N1CCOCC1 [Test Compound (b), 2(S)-(N-Morpholinocarbonyl-L-phenylalanyl-N^α -methyl-L-histidyl)amino-1-cyclohexyl-3(S)-hydroxy-6-methylheptane] | 21 nM | 96% | 25% |
| CC(C)CC[C@H](O)[C@H](CC1CCCCC1)NC(=O)[C@H](Cc1c[nH]cn1)N(C)C(=O)[C@H](Cc1ccccc1)NC(=O)N1CCSCC1 [Test Compound (c), 2(S)-(N-Thiomorpholinocarbonyl-L-phenylalanyl-N^α -methyl-L-histidyl)amino-1-cyclohexyl-3(S)-hydroxy-6-methylheptane] | 24 nM | – | – |
| CC(C)CC[C@H](O)[C@H](CC1CCCCC1)NC(=O)[C@H](Cc1c[nH]cn1)N(C)C(=O)[C@H](Cc1ccccc1)NC(=O)N1CCc2ccccc2C1 [Test Compound (d), 2(S)-[N-(1,2,3,4-Tetrahydroisoquinolin-2-ylcarbonyl)-L-phenylalanyl-N^α -methyl-L-histidyl]amino-1-cyclohexyl-3(S)-hydroxy-6-methylheptane] | 60 nM | – | – |
